Results from US6894050B2, “5-HT receptor ligands and uses thereof” (Pfizer Inc., priority 2001, dated 2005).
Where a name gives a salt, the structure may show the parent alone.

Tests used:
[1] = system: anaesthetised rabbit model of sexual arousal; experiment: Pelvic nerve-stimulated genital blood flow in the anaesthetised rabbit model of sexual arousal; assay type: in vivo; details: 5 mg/kg s.c.; for Compound-induced potentiation of stimulated vaginal blood flow: %
Method: Female New Zealand rabbits (˜2.5 kg) were pre-medicated with a combination of Medetomidine (Domitor®) 0.5 ml/kg intramuscularly (i.m.), and Ketamine (Vetalar®) 0.25 ml/kg i.m. whilst maintaining oxygen intake via a face mask. The rabbits were tracheotomised using a Portex™ uncuffed endotracheal tube 3 ID (internal diameter), connected to ventilator and maintained at a ventilation rate of 30-40 breaths per minute, with an approximate tidal volume of 18-20 ml, and a maximum airway pressure of 10 cm H2O. Anaesthesia was then switched to Isoflurane® and ventilation continued with O2 at 2 l/min. The right marginal ear vein was cannulated using a 23G or 24G catheter, and Lactated Ringer solution perfused at 0.5 ml/min. The rabbit was maintained at 3% Isoflurane® during invasive surgery, dropping to 2% for maintenance anaesthesia.
The left groin area of the rabbit was shaved and a vertical incision was made approximately 5 cm in length along the thigh. The femoral vein and artery were exposed, isolated and then cannulated with a PVC catheter (17G) for the infusion of drugs and compounds. Cannulation was repeated for the femoral artery, inserting the catheter to a depth of 10 cm to ensure that the catheter reached the abdominal aorta. This arterial catheter was linked to a Gould system to record blood pressure. Samples for blood gas analysis were also taken via the arterial catheter. Systolic and diastolic pressures were measured, and the mean arterial pressure calculated using the formula (diastolic×2+systolic)÷3. Heart rate was measured via the pulse oxymeter and Po-ne-mah data acquisition software system (Ponemah Physiology Platform, Gould Instrument Systems Inc).
A ventral midline incision was made into the abdominal cavity. The incision was about 5 cm in length just above the pubis. The fat and muscle was bluntly dissected away to reveal the hypogastric nerve which runs down the body cavity. It was essential to keep close to the side curve of the pubis wall in order to avoid damaging the femoral vein and artery, which lie above the pubis. The sciatic and pelvic nerves lie deeper and were located after further dissection on the dorsal side of the rabbit. Once the sciatic nerve is identified, the pelvic nerve was easily located. The term pelvic nerve is loosely applied; anatomy books on the subject fail to identify the nerves in sufficient detail. However, stimulation of the nerve causes an increase in vaginal and clitoral blood flow, and innervation of the pelvic region. The pelvic nerve was freed away from surrounding tissue and a Harvard bipolar stimulating electrode was placed around the nerve. The nerve was slightly lifted to give some tension, then the electrode was secured in position. Approximately 1 ml of light paraffin oil was placed around the nerve and electrode. This acts as a protective lubricant to the nerve and prevents blood contamination of the electrode. The electrode was connected to a Grass S88 Stimulator. The pelvic nerve was stimulated using the following parameters:—5V, pulse width 0.5 ms, duration of stimulus 10 seconds and a frequency range of 2 to 16 Hz. Reproducible responses were obtained when the nerve was stimulated every 15-20 minutes. A frequency response curve was determined at the start of each experiment in order to determine the optimum frequency to use as a sub-maximal response, normally 4 Hz. A ventral midline incision was made, at the caudal end of the pubis, to expose the pubic area. Connective tissue was removed to expose the tunica of the clitoris, ensuring that the wall was free from small blood vessels. The external vaginal wall was also exposed by removing any connective tissue. One laser Doppler flow probe was inserted 3 cm into the vagina, so that half the probe shaft was still visible. A second probe was positioned so that it lay just above the external clitoral wall. The position of these probes was then adjusted until a signal was obtained. […]

[2] = molecular target: T1, 5-HT2c receptor (5-HT2c expressed NIH 3T3 cells) (UniProt P28335); experiment: Functional Assay (FLIPR calcium fluorescence, Fluo 4-AM); assay type: cell-based
T1 sequence (P28335 1-458): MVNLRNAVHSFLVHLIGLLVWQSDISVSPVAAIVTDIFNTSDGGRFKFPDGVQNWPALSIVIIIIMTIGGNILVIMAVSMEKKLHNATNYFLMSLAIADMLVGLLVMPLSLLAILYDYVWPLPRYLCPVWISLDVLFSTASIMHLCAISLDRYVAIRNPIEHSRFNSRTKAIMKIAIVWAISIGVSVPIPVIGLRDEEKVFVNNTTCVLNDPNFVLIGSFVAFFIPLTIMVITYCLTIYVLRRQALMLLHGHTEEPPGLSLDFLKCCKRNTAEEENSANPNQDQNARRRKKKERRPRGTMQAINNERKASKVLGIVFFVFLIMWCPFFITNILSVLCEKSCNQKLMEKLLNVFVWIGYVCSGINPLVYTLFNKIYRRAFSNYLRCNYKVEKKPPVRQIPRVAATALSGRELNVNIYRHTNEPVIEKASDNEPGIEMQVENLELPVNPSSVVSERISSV
Method: […] Forty eight (48) hrs later the cells were loaded with the calcium sensitive dye, Fluo 4-AM (4 μM dissolved in DMSO containing pluronic acid) in serum free DMEM in the presence of probenicid (2.5 mM) for 75 minutes at 37° C. in a CO2 incubator. Unincorporated dye was removed by washing 3 times with a HEPES-buffered saline containing probenicid (2.5 mM) using a Skatron™ cell washer (final volume 30 μL).
Test compound additions were made simultaneously to all 384 wells after 20 seconds of baseline recording. Concentration-response curves were generated using Graphpad Prism™ (available from GraphPad Software, Inc., San Diego, Calif.) and agonist efficacies were generated as % of the response to 10 μM 5-HT (considered as 100%).

## COCC[C@H](CC1(C(=O)NCCCc2ccc(Cl)cc2)CCCC1)C(=O)O (as salt: sodium)
other
  melting point: 214 to 216 °C

## O=C1Nc2cc(Cl)c(Cl)cc2N2CCNCC12 (stereo not shown) [8,9-dichloro-2,3,4,4a-tetrahydro-1H-pyrazino[1,2-a]quinoxalin-5(6H)-one]
[1]
  time after s.c. dosing at which potentiation was significant: 30 min
  time potentiation remained elevated: circa 1 hr
[1]; anaesthetised rabbit
  effect on pelvic-nerve stimulated (PNS) increases in vaginal and clitoral blood flow: potent enhancer
  potentiation of pelvic nerve stimulated increases in genital blood flow: circa 35%
[1]; no pelvic nerve stimulation
  effect on basal genital blood flow in the absence of PNS: no effect
[1]; 15 min after injection
  Pelvic nerve stimulated increases in vaginal blood flow: 292 Laser Doppler units
  Unstimulated vaginal blood flow: 185 Laser Doppler units
  Compound-induced potentiation of stimulated vaginal blood flow: 21%
[1]; 30 min after injection
  Pelvic nerve stimulated increases in vaginal blood flow: 325 Laser Doppler units
  Unstimulated vaginal blood flow: 162 Laser Doppler units
  Compound-induced potentiation of stimulated vaginal blood flow: 34%
[1]; 45 min after injection
  Pelvic nerve stimulated increases in vaginal blood flow: 295 Laser Doppler units
  Unstimulated vaginal blood flow: 150 Laser Doppler units
  Compound-induced potentiation of stimulated vaginal blood flow: 22%
[1]; 60 min after injection
  Pelvic nerve stimulated increases in vaginal blood flow: 325 Laser Doppler units
  Unstimulated vaginal blood flow: 127 Laser Doppler units
  Compound-induced potentiation of stimulated vaginal blood flow: 34%
[1]; 75 min after injection
  Pelvic nerve stimulated increases in vaginal blood flow: 252 Laser Doppler units
  Unstimulated vaginal blood flow: 137 Laser Doppler units
  Compound-induced potentiation of stimulated vaginal blood flow: 4%
[1]; 90 min after injection
  Pelvic nerve stimulated increases in vaginal blood flow: 247 Laser Doppler units
  Unstimulated vaginal blood flow: 132 Laser Doppler units
  Compound-induced potentiation of stimulated vaginal blood flow: 2%

## Cc1cc(C)cc(COc2cncc(N3CCNCC3)n2)c1 [Example 1-AA, 6′-(3,5-Dimethyl-benzyloxy)-3,4,5,6-tetrahydro-2H-[1,2′]bipyrazinyl]
[2]
  functional behaviour at 5-HT2c: acted as an antagonist

## C[C@@H](Oc1cncc(N2CCNCC2)n1)c1ccccc1 [Example 1-AE, 6′-[(1R)-Phenyl-ethoxy]-3,4,5,6-tetrahydro-2H-[1,2′]bipyrazinyl]
[2]
  functional behaviour at 5-HT2c: acted as an antagonist

## C[C@H](Oc1cncc(N2CCNCC2)n1)c1ccccc1 [Example 1-AF, 6′-[(1S)-Phenyl-ethoxy]-3,4,5,6-tetrahydro-2H-[1,2′]bipyrazinyl]
[2]
  functional behaviour at 5-HT2c: acted as an antagonist

## C[C@@H]1CNCCN1c1cncc(OCc2ccccc2F)n1 [Example 1-AH, 6′-(2-Fluoro-benzyloxy)-(2R)-methyl-3,4,5,6-tetrahydro-2H-[1,2′]bipyrazinyl]
[2]
  functional behaviour at 5-HT2c: acted as an antagonist

## C[C@H]1CN(c2cncc(OCc3cccc(F)c3)n2)CCN1 [Example 1-AL, 6′-(3-Fluoro-benzyloxy)-(3S)-methyl-3,4,5,6-tetrahydro-2H-[1,2′]bipyrazinyl]
[2]
  functional behaviour at 5-HT2c: acted as an antagonist

## Clc1cccc(COc2cncc(N3CCNCC3)n2)c1Cl [Example 1-AO, 6′-(2,3-Dichloro-benzyloxy)-3,4,5,6-tetrahydro-2H-[1,2′]bipyrazinyl]
[2]
  functional behaviour at 5-HT2c: acted as an antagonist

## CN1CCN(c2cncc(OCc3cccc(Cl)c3)n2)CC1 [Example 1-AS, 6′-(3-Chloro-benzyloxy)-4-methyl-3,4,5,6-tetrahydro-2H-[1,2′]bipyrazinyl]
[2]
  functional behaviour at 5-HT2c: acted as an antagonist

## CN1CCN(c2cncc(OCc3cccc(F)c3)n2)CC1 [Example 1-AT, 6′-(3-Fluoro-benzyloxy)-4-methyl-3,4,5,6-tetrahydro-2H-[1,2′]bipyrazinyl]
[2]
  functional behaviour at 5-HT2c: acted as an antagonist

## Clc1cc(Cl)cc(COc2cncc(N3CCNCC3)n2)c1 [Example 1-N, 6′-(3,5-Dichloro-benzyloxy)-3,4,5,6-tetrahydro-2H-[1,2′]bipyrazinyl]
[2]
  functional behaviour at 5-HT2c: acted as an antagonist

## Clc1ccc(COc2cncc(N3CCNCC3)n2)cc1 [Example 1-R, 6′-(4-Chloro-benzyloxy)-3,4,5,6-tetrahydro-2H-[1,2′]bipyrazinyl]
[2]
  functional behaviour at 5-HT2c: acted as an antagonist

## C[C@@H]1CN(c2cncc(OCc3cccc(Cl)c3)n2)CCN1 [Example 1-U, 6′-(3-Chloro-benzyloxy)-(3R)-methyl-3,4,5,6-tetrahydro-2H-[1,2′]bipyrazinyl]
[2]
  functional behaviour at 5-HT2c: acted as an antagonist

## C[C@@H]1CN(c2cncc(OCc3cccc(Cl)c3)n2)C[C@H](C)N1 [Example 1-V, 6′-(3-Chloro-benzyloxy)-(3R,5S)-dimethyl-3,4,5,6-tetrahydro-2H-[1,2′]bipyrazinyl]
[2]; 10 μM
  activity at 10 μM: no activity

## FC(F)(F)c1cc(COc2cncc(N3CCNCC3)n2)cc(C(F)(F)F)c1 [Example 1-W, 6′-(3,5-Bis-trifluoromethyl-benzyloxy)-3,4,5,6-tetrahydro-2H-[1,2′]bipyrazinyl]
[2]
  functional behaviour at 5-HT2c: acted as an antagonist

## CC(Oc1cncc(N2CCNCC2)n1)c1cc(F)cc(F)c1 (stereo not shown) [Example 1-Z, 6′-[1-(3,5-Difluoro-phenyl)-ethoxy]-3,4,5,6-tetrahydro-2H-[1,2′]bipyrazinyl]
[2]
  functional behaviour at 5-HT2c: acted as an antagonist

## Cl.Clc1ccc(CNc2cncc(N3CCNCC3)n2)cc1 [Example 4-C, (4-Chloro-benzyl)-(3,4,5,6-tetrahydro-2H-[1,2′]bipyrazinyl-6′-yl)-amine hydrochloride salt]
[2]
  functional behaviour at 5-HT2c: acted as an antagonist

## Cl.Fc1ccc(CNc2cncc(N3CCNCC3)n2)cc1 [Example 4-D, (4-Fluoro-benzyl)-(3,4,5,6-tetrahydro-2H-[1,2′]bipyrazinyl-6′-yl)-amine hydrochloride salt]
[2]
  functional behaviour at 5-HT2c: acted as an antagonist
